EC50 data for three compounds are collected here from PubChem BioAssay AID681 (The Scripps Research Institute Molecular Screening Center, 2007).

SMILES strings stand for the structures.

Nuclear receptor ROR-alpha (Homo sapiens), sequence (P35398 whole entry, looked up, the tested form may be a part): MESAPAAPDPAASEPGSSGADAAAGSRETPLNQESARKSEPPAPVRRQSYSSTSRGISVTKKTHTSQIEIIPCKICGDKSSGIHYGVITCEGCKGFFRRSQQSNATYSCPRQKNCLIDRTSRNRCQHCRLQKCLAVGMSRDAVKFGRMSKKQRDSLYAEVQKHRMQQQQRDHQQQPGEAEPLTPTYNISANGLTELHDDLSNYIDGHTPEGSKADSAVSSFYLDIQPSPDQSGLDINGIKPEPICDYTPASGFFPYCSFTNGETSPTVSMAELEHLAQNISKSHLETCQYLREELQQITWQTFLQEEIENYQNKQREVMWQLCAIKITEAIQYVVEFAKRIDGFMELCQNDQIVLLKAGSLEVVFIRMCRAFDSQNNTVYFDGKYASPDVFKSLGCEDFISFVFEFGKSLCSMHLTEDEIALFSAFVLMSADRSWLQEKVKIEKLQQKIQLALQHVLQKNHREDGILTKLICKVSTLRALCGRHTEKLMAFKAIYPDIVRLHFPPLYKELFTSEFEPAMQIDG

This assay has as its target Nuclear receptor ROR-alpha (Homo sapiens) (UniProt P35398). Nature of the assay: RORA ligand-binding domain transactivation agonists – cell-based, CHO-K1, Gal4-RORA LBD, luciferase luminescence, dose response (AID 681). Conditions: CHO-K1 Gal4-RORA LBD luciferase reporter.
A word on the EC50: it is the midpoint of the concentration-response curve. On to `C=CCOc1ccc(/C=C/C(C)=N\O)cc1`, for which the concentration giving a half-maximal response (EC50) is 1350 nM.
For the compound `O=C1COc2ccc(OCc3ccc(F)cc3)cc21`, the concentration giving a half-maximal response (EC50) was 3630 nM.
In the case of `CCOc1ccc(/C=C\C(C)=N\O)cc1`, the EC50 was 491 nM.
